Like-named read-outs stand apart in the source and are kept apart here.
Columns and labels:
[1] = test system: collagen-induced arthritis; assay: Collagen-induced arthritis model, indomethacin sustained release composition (Example 6); type: in vivo, Lewis rats
From the text: (§1) During the 14-day study period, the rats were examined 3 times a week for the following outcomes: • Body weight loss, which is one of the parameters for evaluating the severity of arthritis. • Clinical Visual Arthritis Score, which is a visual score which correlates with the severity of arthritis. It was graded using an articular index of each paw, ranging from 0 to 4 (0=no edema or erythema on the foot pad; 1=slight edema and erythema on the foot pad; 2=mild edema and erythema on the foot pad; 3=moderate edema and erythema on the entire foot pad and the ankle; 4=severe edema and joint rigidity of the ankle, foot and digits). The Clinical Visual Arthritis Score for each rat was the sum of the articular index of both hind paws, with a maximum score of 8. • Hind paw volume and swelling. The hind paw volume was measured by UGO Plethysmometer 7149 measuring system. The final volume data was normalized with the average body weight (ml/kg) and edema was defined as the increase in paw volume on the day of measurement relative to day 0.
An in vivo evaluation of the effect of the indomethacin sustained release composition on arthritis was performed using 18 female Lewis rats (BioLASCO Taiwan Co, Ltd., Taiwan).
The arthritis treatments were initiated at the peak of the clinical visual arthritis score, which occurred at day 19. Eighteen rats were randomly divided into three groups (6 rats in each group): (1) control group (without any treatment, labeled “Control” in FIG. 9); (2) free indomethacin group (2 mg/kg indomethacin per dose, labeled “Indomethacin (2 mg/kg) in FIG. 9); and (3) indomethacin sustained release composition group (2 mg/kg indomethacin per dose; labeled “Indomethacin-BioSeizer (2 mg/kg) in FIG. 9). The rats in each group were given no treatment (control group), daily subcutaneous injection around the arthritis joints of free indomethacin or indomethacin sustained release composition, from day 19 to day 23.

[2] = test system: collagen-induced arthritis
From the text: as §1

[3] = test system: arthritis induced with bovine type II collagen; assay: Single IA injection of DSP sustained release compositions in arthritic rats (Example 3); type: in vivo, Lewis rats
Experimental: Sixteen female rats, aged 8 weeks, were used in the study. The average body weight of the rats was from about 180 to about 200 grams.
To induce arthritis, each rat was immunized with 200 μg of bovine type II collagen (4 mg/ml stocked in 10 mM acetic acid, commercially available from Elastin Products, Owensville, USA) emulsified in Freund's incomplete adjuvant (commercially available from Sigma Chemical Co., USA) on day 0 and then again on day 7.
The rats were randomized into the following 4 study groups:
Group 1: 4 rats each received 100 μl of saline per paw (labeled “Saline Control in FIGS. 1-8)
Group 3: 4 rats each received 100 μl of the sustained release composition 1 per paw, wherein the concentration of DSP is 1 mg/ml (labeled “TLC399_1 mg/mg in FIGS. 1-4 and “TLC399_I 4 mg/ml in FIGS. 5-8).
Group 4: 4 rats each received 100 μl of the sustained release composition 2 per paw, wherein the concentration of DSP is 1.4 mg/ml (labeled “TLC399_1.4 mg/mg in FIGS. 1-4 and “TLC399_II 1.4 mg/ml in FIGS. 5-8).
The control or the DSP formulation was administered to both hind paws of the rat as a once only IA injection on day 19.

[4] = test system: arthritis induced with bovine type II collagen; assay: Four daily IA injections of DSP sustained release compositions in arthritic rats (Example 4); type: in vivo, Lewis rats; conditions: four daily IA injections day 26 to day 29
From the text: as §1

[5] = test system: collagen-induced arthritis; assay: Collagen-induced arthritis model, etanercept sustained release composition (Example 8); type: in vivo, Lewis rats
[6] = day 30, doses on day 23 and day 26

COc1ccc2c(c1)c(CC(=O)O)c(C)n2C(=O)c1ccc(Cl)cc1 [free indomethacin, Indomethacin sodium]
average arthritis score before treatment ([1]; before the first dose on day 19): 7.4
average arthritis score ([1]; day 20, 2 mg/kg indomethacin per dose, daily from day 19 to day 23): 5
arthritis score ([1]; day 25, after termination of treatment on day 23): 8
time after termination of treatment until arthritis signs returned / amelioration continued ([1]; treatment day 19 to day 23): 2 days

CN(Cc1cnc2nc(N)nc(N)c2n1)c1ccc(C(=O)N[C@@H](CCC(=O)[O-])C(=O)[O-])cc1.[Na+].[Na+] [free methotrexate, methotrexate sodium]
average arthritis score before treatment ([2]; before the first dose on day 23): 3.7
average arthritis score ([2]; day 26, 1 mg/kg methotrexate per dose on day 23 and day 26): 1.4
arthritis score [2, 6]: 3.5
time after termination of treatment until arthritis signs returned / amelioration continued ([2]; doses on day 23 and day 26): 4 days

dexamethasone sodium phosphate [free DSP]
paw swelling thickness, both paws ([3]; day 23, volume normalized with body weight): around 7.5 ml/kg
clinical visual arthritis score ([3]; day 26, single IA injection on day 19): 4.5
clinical visual arthritis score, average ([3]; prior to the IA injection (day 19), sum of both hind paws, maximum 8): 4.0
day on which both paws became swollen again ([3]; single IA injection on day 19): 23 days
clinical visual arthritis score, lowest recorded ([4]; day 30): 3
day on which paws were swollen again / first sign of paw swelling [4]: 31 days
day on which relapsed arthritis signs became severe [4]: 33 days

etanercept [free etanercept]
average arthritis score ([5]; day 26, 50 mg/kg etanercept per dose on day 23 and day 26): 2.4
arthritis score [5, 6]: 4
time after termination of treatment until arthritis relapsed / amelioration continued ([5]; doses on day 23 and day 26): 3 days

Reference: patent publication US11793755B2, “Pharmaceutical composition for intraarticular delivery” (TAIWAN LIPOSOME CO., LTD., priority 2012, dated 2023)
